Data taken from patent US20230181532A1, “GRANULES FOR 3D PRINTING TECHNOLOGY” (BOARD OF REGENTS, THE UNIVERSITY OF TEXAS SYSTEM, priority 2020, published 2023).

Tests used:
Format in all cases: physicochemical
[1] = In vitro release testing, pH shift dissolution (USP type II paddle); settings: pH 2, 2 h
Description: The in vitro release testing was performed using a pH shift protocol to simulate physiological conditions and contrary to the USP dissolution medium i.e., pH 7.2 phosphate buffer. […] Moreover, because of its pKa and hydrophobicity, and the amorphous nature of the drug in the samples of interest, it was important to expose it to acidic conditions before exposing it to relatively basic conditions. […] If the drug exists in its amorphous form in the formulation, it is crucial to study its stability in the acidic pH as in the physiological environment the formulation will be exposed to it first.
For this pH-shift dissolution test, the above-mentioned samples (n=3) were introduced into 750 mL of HCl-KCl buffer (pH 2, 0.1 M, hydrochloric acid-potassium chloride buffer) for 2 h using a 900 mL vessel. 150 mL of phosphate buffer (pH6.8, 0.1 M) was then introduced to each vessel shifting the pH from 2 to 6.8, with a final volume of 900 mL. […] The dissolution of the samples was tested at the final pH of 6.8 for an additional 2 h. The test was conducted using a Paddle type assembly (USP type II). […] Acetonitrile was used to dilute (2-fold) the drawn samples and the previously described method of analysis was used to quantify the API in the samples.

Angle of repose (AOR) = experiment: Angle of repose (AOR)
From the text: A 100 mm circular test platform together with a digital height gauge having a range of 0-300 mm and an accuracy of 0.03 mm was used (BEP2, Copley Scientific Limited. Nottingham, UK). […] The surplus powder was collected in a tray below the test platform. The nozzle (10 mm nozzle for the angle of repose) of the funnel was placed 75 mm above the test platform, and the nozzle was secured using the shutter mechanism. 100 g of the sample (drug and granules) were placed in the funnel, and the shutter was moved gently but rapidly to allow the powder to flow. The powder formed a conical on the test platform and started overflowing. […] The height of the powder cone was measured using the digital height gauge and the diameter of the cone was 100 (diameter of the platform was 100 mm). Equation 2 was used to calculate the angle of repose.

[2] = Flow through orifice powder flow test
From the text: A United States Pharmacopoeia (USP) compliant flowability tester, with funnel attachments (BEP2, Copley Scientific Limited, Nottingham, UK) was used for the flow-through orifice study. The purpose of this test was to stimulate the flow in a hopper or other mass transfer situations (Taylor et al., 2000). The funnel was placed 40 mm above the collecting beaker, and the beaker was placed on a measuring scale. The nozzle was fixed onto the funnel and the shutter mechanism was used to prevent any premature flow from the funnel. 100 g of the sample powder was transferred to the funnel and the test was started 30 s after the transfer (this facilitated floccule formation). The weight was recorded for the samples with respect to the time in triplicates (n=3) for each nozzle diameter (10, 15, and 25 mm) and samples (PA 12 (reference), granules, and drug). Time versus weight curves were constructed for the processed granules and the properties were compared with PA 12.

## COc1ccc2c(c1)c(CC(=O)O)c(C)n2C(=O)c1ccc(Cl)cc1 [IND, Indomethacin]
[1]
  dissolution behaviour in acidic environment: did not show any improvement in their solubility
Angle of repose (AOR)
  flow classification as per the AOR reference table: very poor
Angle of repose (AOR); 10 mm nozzle, 100 g sample, n=3
  angle of repose θ value: 58.2±0.06 °
[2]
  flow through orifice observation: no flow throughout the test
